According to patent publication US7851589B2, “Polypeptide derived from the ryanodine receptor that inhibits calcium leakage” (Otsuka Pharmaceutical Co., Ltd., priority 2004, dated 2010):

Legend:
ryanodine receptor = test: FK506-induced Ca2+ leakage in sarcoplasmic reticulum derived from canine myocardium (fluo 3 indicator); assay type: biochemical; conditions: for Ca2+ leakage inhibitory effect: 30 μM FK506 + 1 μM thapsigargin, value 20 seconds after addition, canine myocardial sarcoplasmic reticulum; for Ca2+ leakage inhibitory effect / Ca2+ leakage inhibitory activity compared with R2P: polypeptide 0.1, 0.3 or 1.0 μM
Experimental: Ca^2+ leakage inhibitory activity was measured through the method of Yano, M., et al. [Yano, et al., Circulation, 102, 2131-2136 (2000)].
Firstly, sarcoplasmic reticulum was prepared from canine myocardium through the method of Kranias, et al. [Kranias E., et al., Biochim. Biophys. Acta., 709, 28-37 (1982)].
Subsequently, the sarcoplasmic reticulum (0.2 mg/mL) was incubated in 0.5 mL of 20 mM MOPS buffer (pH 6.8) containing […] potassium gluconate, 0.2 mM EGTA-calcium buffer (free calcium: Ca^2+=0.3 μM), and 10 mM NaN3.
After the fluorescence value was maintained constant, 0.5 mM ATP (product of Sigma) and 0.5 mM magnesium chloride were added to the resultant mixture, to thereby initiate Ca^2+ uptake. The time course of Ca^2+ uptake was measured. Ca^2+ uptake was measured by means of fluo 3 (product of Molecular Probes) serving as a Ca^2+ indicator, and the fluorescence intensity at an excitation wavelength of 480 nm and an emission wavelength of 530 nm was measured by means of a fluorometer.
After Ca^2+ uptake reached a plateau, 1 μM thapsigargin (product of Wako Pure Chemical Industries, Ltd.) was added to thereby inhibit sarco(endo)plasmic reticulum Ca-ATPase (SERCA) activity for elimination of the influence of SERCA. The difference between the fluorescence value before addition of ATP and the fluorescence value at the time of completion of ATP-induced active Ca^2+ uptake (i.e., the fluorescence value at the time when Ca^2+ uptake reached a plateau) was taken as 100%.
Ca^2+ leakage induced by simultaneous addition of thapsigargin and 30 μM FK506 (product of Fujisawa Pharmaceutical Co., Ltd,), which was regarded as a control of Ca^2+ leakage induction, was measured by means of a Ca^2+ indicator.
A polypeptide obtained in (a) above (concentration: 0.1 μM, 0.3 μM, or 1.0 μM) and FK506 (30 μM/L) were added simultaneously with administration of thapsigargin, and the effect of inhibiting the thus-induced Ca^2+ leakage via ryanodine receptor was measured by means of a Ca^2+ indicator in a manner similar to that described above.
In each of these figures, the vertical axis corresponds to the value as measured 20 seconds after addition of thapsigargin, FK506, and a polypeptide. The value is the average of data of measurement performed twice or three times.

[1] = tested on: tachycardia-induced canine heart failure model; conditions: cited from earlier work
RyR2 = RyR2 (Canis lupus familiaris, UniProt A0A8I3MT21); conditions: cited from earlier work
[2] = tested on: ischemic reperfusion injury; conditions: Hypertens. Res., 25: 303-9 (2002); cited from earlier work
normal canine model = conditions: cited from earlier work
[3] = tested on: neuron death during cerebral ischemia; conditions: Neurosci. Lett., 158: 105-108 (1993); cited from earlier work

Sequence of RyR2 (A0A8I3MT21 1-4967): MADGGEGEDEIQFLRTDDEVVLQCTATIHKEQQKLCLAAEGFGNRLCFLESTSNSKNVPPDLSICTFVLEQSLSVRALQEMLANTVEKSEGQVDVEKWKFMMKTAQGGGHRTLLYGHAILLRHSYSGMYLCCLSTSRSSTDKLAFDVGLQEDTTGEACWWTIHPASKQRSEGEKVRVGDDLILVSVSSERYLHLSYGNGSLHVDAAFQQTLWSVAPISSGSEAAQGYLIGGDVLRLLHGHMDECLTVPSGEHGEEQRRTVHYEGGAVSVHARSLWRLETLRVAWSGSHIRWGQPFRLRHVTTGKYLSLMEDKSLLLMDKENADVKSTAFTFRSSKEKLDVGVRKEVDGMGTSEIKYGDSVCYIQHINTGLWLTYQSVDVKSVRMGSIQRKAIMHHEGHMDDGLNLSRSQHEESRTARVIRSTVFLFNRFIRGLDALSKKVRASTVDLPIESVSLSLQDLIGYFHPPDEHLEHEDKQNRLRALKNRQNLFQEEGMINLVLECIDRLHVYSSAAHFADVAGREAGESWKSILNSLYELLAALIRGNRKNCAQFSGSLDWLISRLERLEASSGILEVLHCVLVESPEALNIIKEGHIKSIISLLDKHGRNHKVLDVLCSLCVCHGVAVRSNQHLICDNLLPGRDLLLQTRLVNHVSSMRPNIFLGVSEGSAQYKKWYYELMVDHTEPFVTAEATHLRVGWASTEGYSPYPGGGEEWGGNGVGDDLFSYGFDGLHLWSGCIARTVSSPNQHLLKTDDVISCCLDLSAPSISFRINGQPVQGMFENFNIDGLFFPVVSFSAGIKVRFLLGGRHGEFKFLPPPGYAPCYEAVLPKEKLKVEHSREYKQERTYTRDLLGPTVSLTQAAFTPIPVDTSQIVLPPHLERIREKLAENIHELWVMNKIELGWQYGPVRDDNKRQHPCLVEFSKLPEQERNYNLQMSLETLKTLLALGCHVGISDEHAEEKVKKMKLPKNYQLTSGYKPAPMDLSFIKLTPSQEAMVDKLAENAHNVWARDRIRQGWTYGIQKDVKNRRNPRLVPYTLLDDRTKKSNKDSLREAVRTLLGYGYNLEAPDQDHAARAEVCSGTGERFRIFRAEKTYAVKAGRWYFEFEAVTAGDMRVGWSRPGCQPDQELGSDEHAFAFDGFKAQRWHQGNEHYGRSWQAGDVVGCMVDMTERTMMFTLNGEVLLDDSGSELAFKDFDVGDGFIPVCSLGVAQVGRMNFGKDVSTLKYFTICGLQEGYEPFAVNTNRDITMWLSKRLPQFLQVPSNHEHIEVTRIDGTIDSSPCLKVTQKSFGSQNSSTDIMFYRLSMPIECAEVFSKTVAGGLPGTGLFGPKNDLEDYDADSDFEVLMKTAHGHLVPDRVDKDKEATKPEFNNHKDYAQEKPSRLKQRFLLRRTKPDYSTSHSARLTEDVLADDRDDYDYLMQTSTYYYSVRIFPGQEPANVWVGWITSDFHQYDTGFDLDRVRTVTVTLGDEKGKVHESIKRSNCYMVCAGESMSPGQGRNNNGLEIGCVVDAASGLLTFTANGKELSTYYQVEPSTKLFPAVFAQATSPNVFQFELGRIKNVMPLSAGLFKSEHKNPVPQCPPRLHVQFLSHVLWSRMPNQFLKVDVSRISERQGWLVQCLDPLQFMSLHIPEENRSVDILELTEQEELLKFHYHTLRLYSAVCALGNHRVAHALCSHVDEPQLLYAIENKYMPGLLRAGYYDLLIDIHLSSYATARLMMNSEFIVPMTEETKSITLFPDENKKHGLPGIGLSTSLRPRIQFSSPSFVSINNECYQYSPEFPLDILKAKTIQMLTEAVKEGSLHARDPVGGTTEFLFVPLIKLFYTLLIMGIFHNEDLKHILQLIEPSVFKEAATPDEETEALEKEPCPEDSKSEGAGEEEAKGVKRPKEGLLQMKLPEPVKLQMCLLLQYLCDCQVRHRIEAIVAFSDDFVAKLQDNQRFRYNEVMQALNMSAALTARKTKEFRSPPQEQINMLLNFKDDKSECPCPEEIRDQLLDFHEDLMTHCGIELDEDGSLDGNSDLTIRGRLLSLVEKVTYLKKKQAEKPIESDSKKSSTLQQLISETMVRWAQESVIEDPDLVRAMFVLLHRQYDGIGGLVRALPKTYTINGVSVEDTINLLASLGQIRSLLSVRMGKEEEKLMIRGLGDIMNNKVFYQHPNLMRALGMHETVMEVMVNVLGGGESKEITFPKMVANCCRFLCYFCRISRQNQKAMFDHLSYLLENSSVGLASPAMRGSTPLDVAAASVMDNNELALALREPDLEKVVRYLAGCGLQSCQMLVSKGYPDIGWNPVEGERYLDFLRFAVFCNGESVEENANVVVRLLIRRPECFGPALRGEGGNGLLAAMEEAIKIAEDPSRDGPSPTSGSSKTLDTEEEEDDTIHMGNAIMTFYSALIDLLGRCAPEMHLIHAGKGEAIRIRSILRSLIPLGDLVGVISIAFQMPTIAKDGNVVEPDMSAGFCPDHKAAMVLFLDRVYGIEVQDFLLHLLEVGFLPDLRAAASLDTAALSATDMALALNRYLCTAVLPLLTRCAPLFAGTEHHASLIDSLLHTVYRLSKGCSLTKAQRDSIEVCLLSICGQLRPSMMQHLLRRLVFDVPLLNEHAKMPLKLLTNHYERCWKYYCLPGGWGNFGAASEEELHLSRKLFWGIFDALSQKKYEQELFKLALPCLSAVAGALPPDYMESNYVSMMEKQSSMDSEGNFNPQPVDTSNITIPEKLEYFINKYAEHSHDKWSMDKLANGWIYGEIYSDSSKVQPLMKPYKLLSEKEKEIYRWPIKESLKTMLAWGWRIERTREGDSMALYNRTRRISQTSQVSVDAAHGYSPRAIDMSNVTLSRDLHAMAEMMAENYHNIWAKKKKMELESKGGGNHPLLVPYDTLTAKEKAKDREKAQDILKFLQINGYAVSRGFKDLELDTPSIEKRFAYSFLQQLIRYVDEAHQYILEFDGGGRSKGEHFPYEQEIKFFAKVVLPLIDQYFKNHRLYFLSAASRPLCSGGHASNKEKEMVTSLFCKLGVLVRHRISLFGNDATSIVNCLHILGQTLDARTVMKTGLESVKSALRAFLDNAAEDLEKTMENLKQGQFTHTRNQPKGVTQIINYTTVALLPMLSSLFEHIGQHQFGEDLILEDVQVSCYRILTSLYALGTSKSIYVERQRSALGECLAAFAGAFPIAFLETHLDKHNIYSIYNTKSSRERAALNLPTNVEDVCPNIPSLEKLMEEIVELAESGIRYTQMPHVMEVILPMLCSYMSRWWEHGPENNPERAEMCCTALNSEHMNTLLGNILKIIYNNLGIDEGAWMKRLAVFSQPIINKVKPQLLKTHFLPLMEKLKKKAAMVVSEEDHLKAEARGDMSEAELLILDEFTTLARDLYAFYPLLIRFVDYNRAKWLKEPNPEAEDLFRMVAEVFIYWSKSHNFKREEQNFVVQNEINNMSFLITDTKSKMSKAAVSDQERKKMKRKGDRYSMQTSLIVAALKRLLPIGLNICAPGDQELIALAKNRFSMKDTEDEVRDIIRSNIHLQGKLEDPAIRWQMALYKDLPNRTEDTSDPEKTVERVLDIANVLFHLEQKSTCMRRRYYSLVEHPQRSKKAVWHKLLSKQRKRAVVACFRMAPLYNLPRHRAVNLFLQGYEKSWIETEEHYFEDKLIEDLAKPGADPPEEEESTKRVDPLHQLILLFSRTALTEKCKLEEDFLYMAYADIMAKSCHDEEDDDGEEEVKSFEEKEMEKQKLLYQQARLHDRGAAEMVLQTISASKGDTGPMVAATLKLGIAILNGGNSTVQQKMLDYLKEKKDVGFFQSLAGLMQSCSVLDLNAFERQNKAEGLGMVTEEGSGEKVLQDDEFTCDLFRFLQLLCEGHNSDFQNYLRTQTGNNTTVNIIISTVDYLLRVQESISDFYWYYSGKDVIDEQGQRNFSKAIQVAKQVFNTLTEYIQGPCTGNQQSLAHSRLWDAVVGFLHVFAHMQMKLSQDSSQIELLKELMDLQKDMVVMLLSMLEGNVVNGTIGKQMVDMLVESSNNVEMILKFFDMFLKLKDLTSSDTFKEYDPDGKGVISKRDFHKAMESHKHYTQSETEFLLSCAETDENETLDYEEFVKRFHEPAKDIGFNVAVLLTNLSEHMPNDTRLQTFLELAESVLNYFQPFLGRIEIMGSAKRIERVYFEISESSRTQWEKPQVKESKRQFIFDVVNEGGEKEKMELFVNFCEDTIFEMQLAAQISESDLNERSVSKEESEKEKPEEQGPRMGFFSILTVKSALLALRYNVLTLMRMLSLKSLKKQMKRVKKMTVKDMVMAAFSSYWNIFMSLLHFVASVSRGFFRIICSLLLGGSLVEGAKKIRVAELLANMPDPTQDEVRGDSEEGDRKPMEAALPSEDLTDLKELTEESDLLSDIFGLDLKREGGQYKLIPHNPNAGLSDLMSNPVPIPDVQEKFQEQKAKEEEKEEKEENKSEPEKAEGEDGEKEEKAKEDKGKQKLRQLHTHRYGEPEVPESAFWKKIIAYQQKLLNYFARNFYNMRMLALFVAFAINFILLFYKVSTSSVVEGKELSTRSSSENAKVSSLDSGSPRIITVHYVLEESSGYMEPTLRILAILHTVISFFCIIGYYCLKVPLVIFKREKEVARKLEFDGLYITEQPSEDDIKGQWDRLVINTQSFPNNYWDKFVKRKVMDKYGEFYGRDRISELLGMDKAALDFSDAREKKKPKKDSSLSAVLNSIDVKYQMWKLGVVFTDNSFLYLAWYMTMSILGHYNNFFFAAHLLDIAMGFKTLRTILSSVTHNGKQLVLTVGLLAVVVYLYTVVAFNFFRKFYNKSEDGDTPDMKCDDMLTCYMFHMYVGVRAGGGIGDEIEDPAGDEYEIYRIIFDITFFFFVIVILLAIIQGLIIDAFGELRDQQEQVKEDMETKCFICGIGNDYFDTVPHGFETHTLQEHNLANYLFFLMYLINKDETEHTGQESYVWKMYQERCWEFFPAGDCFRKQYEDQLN

| Compound | Ca2+ leakage inhibitory effect (ryanodine receptor) | Ca2+ leakage inhibitory activity compared with R2P (ryanodine receptor; FK506-induced leakage) | other results |
| --- | --- | --- | --- |
| R2JF: hRyR2 amino acid Nos. 2086-2133; SEQ ID NO: 14 peptide introduced to the N-terminal of RP1-20 (VLLHRQYDGIGGLVRALPKTYTINGVSVEDTINLLASLGQIRSLLSVR) | exhibit no Ca^2+ leakage inhibitory effect | – | – |
| RP1-20: hRyR2 amino acid Nos. 2114-2133; deletion of 16 amino acids at the C-terminal of R2P (EDTINLLASLGQIRSLLSVR) | exhibit Ca^2+ leakage inhibitory effect in a concentration-dependent manner | lower than that of R2P | – |
| R2P: 36 amino acids corresponding to positions 2114 to 2149 of human ryanodine receptor type 2 (hRyR2) (EDTINLLASLGQIRSLLSVRMGKEEEKLMIRGLGDI) | inhibits Ca^2+ leakage in a concentration-dependent manner | – | Ca2+ leakage inhibitory effect compared with control JTV519 (ryanodine receptor; 1.0 μM polypeptide vs 0.3 μM JTV519, FK506-induced leakage): comparable to that of 0.3 μM JTV519 |
| RP13-32: hRyR2 amino acid Nos. 2126-2145; deletion of 12 N-terminal and four C-terminal amino acids of R2P (IRSLLSVRMGKEEEKLMIRG) | exhibit Ca^2+ leakage inhibitory effect in a concentration-dependent manner | lower than that of R2P | – |
| RP17-36: hRyR2 amino acid Nos. 2130-2149; deletion of 16 amino acids at the N-terminal of R2P (LSVRMGKEEEKLMIRGLGDI) | exhibit Ca^2+ leakage inhibitory effect in a concentration-dependent manner | lower than that of R2P | – |
| RP1-30: hRyR2 amino acid Nos. 2114-2143; deletion of six amino acids at the C-terminal of R2P (EDTINLLASLGQIRSLLSVRMGKEEEKLMI) | exhibit Ca^2+ leakage inhibitory effect in a concentration-dependent manner | lower than that of R2P | – |
| COc1ccc2c(c1)CN(C(=O)CCN1CCC(Cc3ccccc3)CC1)CCS2 [JTV-519] | – | – | Effect on cardiac function [1]: exhibit the effect of improving cardiac function; Correction of abnormal Ca2+ leakage via RyR2 (RyR2; Non-Patent Document 9): corrects abnormal Ca^2+ leakage via RyR2; Inhibition of Ca2+ leakage from the sarcoplasmic reticulum of failing myocardium (RyR2; known property of the control): inhibit Ca^2+ leakage from the sarcoplasmic reticulum of failing myocardium in a concentration-dependent manner; Effect on ischemic reperfusion injury [2]: effective for ischemic reperfusion injury; Effect on cardiac function (normal canine model): exhibit no effect on cardiac function |
| RP1-25: hRyR2 amino acid Nos. 2114-2138; deletion of 11 amino acids at the C-terminal of R2P (EDTINLLASLGQIRSLLSVRMGKEE) | exhibit Ca^2+ leakage inhibitory effect in a concentration-dependent manner | lower than that of R2P | – |
| MSV-RP2: M+2112-2149; addition of methionine, serine and valine to the N-terminal of R2P (MSVEDTINLLASLGQIRSLLSVRMGKEEEKLMIRGLGDI) | exhibit Ca^2+ leakage inhibitory effect in a concentration-dependent manner | lower than that of R2P | – |
| O=C1CN(/N=C/c2ccc(-c3ccc([N+](=O)[O-])cc3)o2)C(O)=N1 [dantrolene] | – | – | Inhibition of neuron death during cerebral ischemia [3]: inhibit neuron death during cerebral ischemia |
| SEQ ID NO: 14: hRyR2 amino acid Nos. 2086-2113 (VLLHRQYDGIGGLVRALPKTYTINGVSV) | having no Ca^2+ leakage inhibitory effect | – | – |
